Here are results for four molecules from US5981517A, “Androstene derivatives” (priority 1997, dated 1999).

pIC50: −log10 of the molar value.

For data set [1], the target named is T1, rat lung glucocorticoid receptor (Rattus norvegicus, UniProt P06536).
T1 construct: Immediately after resection of the lungs, the tissue was frozen in ice; The cytosol was prepared; from tissue; host or cells: lung cytosol of adrenalectomized male Sprague-Dawley rats
T1 sequence (P06536 1-795): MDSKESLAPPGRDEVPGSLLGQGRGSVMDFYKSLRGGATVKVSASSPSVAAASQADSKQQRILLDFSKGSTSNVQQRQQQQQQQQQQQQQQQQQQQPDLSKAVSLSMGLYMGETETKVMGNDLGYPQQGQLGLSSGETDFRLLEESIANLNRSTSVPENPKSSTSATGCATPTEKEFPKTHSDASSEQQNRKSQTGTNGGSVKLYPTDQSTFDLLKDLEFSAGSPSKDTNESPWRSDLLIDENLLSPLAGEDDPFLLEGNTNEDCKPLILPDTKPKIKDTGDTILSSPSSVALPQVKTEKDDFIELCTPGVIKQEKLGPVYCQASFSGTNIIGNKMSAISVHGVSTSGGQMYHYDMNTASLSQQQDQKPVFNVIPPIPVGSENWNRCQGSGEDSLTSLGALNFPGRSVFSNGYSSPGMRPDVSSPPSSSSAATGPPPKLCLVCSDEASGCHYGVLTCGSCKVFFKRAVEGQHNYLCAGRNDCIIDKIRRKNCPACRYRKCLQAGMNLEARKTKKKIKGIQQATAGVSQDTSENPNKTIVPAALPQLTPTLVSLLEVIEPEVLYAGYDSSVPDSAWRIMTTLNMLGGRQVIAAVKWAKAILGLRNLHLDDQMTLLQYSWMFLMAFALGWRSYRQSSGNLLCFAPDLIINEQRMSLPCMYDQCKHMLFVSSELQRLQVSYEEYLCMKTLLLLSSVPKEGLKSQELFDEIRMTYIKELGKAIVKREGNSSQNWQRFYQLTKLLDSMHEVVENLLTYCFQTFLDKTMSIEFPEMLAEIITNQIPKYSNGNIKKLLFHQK
Nature of the data set: Receptor binding studies ([3H]triamcinolone acetonide displacement). Particulars: for RBA: further receptor binding studies (Table X), dexamethasone = 100, * mean ± SE of 3-5 results; for pIC50: rat lung cytosol, 10 nM [3H]triamcinolone acetonide, 2 h, 24° C., read-out: IC50; for pIC50 / Relative binding affinity (RBA): with Δ1-cortienic acid; for Relative binding affinity (RBA): with respect to dexamethasone (RBA = 100).

The subject of data set [2] is forearms of a human volunteer. As to the kind of experiment: Further human vasoconstriction testing, Method 1. Note: key: 0: normal skin; 1: slight pallor of indistinct outline; 2: pallor with at least two corners outlined; 3: even pallor with a clear outline of the application sites; 4: very intense pallor. Type of data set: in vivo. The method, boiled down: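 Each mixture, 50 μL in ethanol, was loaded onto circular 8 mm patches. Once the ethanol had evaporated, the patches were placed on a human volunteer's forearms under a water-impervious film for 3 hr. After the patches were removed, vasoconstriction was scored at intervals from 0 (normal skin) to 4 (very intense pallor). The same individual received all tests, run 2-4 times per compound.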

The nature of another data set: in vitro. The following applies: rat, lung cytosol. Type of data set: in vitro ADME. The procedure: To determine that the compounds of the invention can be stable during the incubation period, the test compounds A, B, C, and D were investigated for their stabilities at the incubation conditions, which are room temperature and 2 hours, for receptor binding studies. The frozen cytosol which was made for the receptor binding study was thawed in a water bath and diluted with 1 part of incubation buffer (10 mM Tris/HCl, 10 mM sodium molybdate, and 2 mM 1,4-dithiothreitol) containing a 15 mM concentration of enzyme inhibitor, diisopropyl fluorophosphate. Portions (560 μL) of the diluted cytosol were added to centrifuge tubes containing 80 μL portions of blank incubation buffer instead of volume of tracer ([^3 H]triamcinolone acetonide) which would be used in the receptor binding study (RBS), 80 μL of solution of a Δ^1 -cortienic acid (0.1 mM) in buffer (the final concentration of Δ^1 -cortienic acid in the incubation medium was […]), and 80 μL of 100,000 nM of concentrations of test compounds in ethanol to give a final concentration of 10,000 nM. This mixture was kept at room temperature for 2 hours. Samples of 0.1 mL were taken at appropriate time intervals (0, 0.5, 1, 1.5, 2 hours) and were mixed with 0.2 mL of acetonitrile containing 5% DMSO. Each mixture was centrifuged and the supernatant were injected in the HPLC.
Male Sprague-Dawley rats, each weighing 150 to 200 g, were used 6 days after adrenalectomy. Rats were sacrificed by decapitation. Immediately after resection of the lungs, the tissue was frozen in ice. The cytosol was prepared using a slight modification of a previously described method (Dahlberg, 1984); After addition of 6 volumes of ice-cold incubation buffer (10 mM Tris/HCl, 10 mM sodium molybdate, and 2 mM 1,4-dithiothreitol), the tissue was homogenized with the Virtis 45 homogenizer at full speed, for 4 periods of 10 seconds with a 10-second cooling period between each step. The homogenate was centrifuged at 35,000 g for 1 hour at 4° C. in a Beckman ultracentrifuge L8-70M equipped with a T170 rotor. Portions (5 ml) of the cytosol were frozen in liquid nitrogen and stored at -80° C.

Usually pIC50 stands for the negative decadic logarithm of the IC50, by convention in mol/L. The share remaining is the share of the starting amount still present when the sample was taken. Lower therefore signals more turnover. As for `C[C@]12C=CC(=O)C=C1CC[C@@H]1[C@@H]2[C@@H](O)C[C@@]2(C)[C@H]1CC[C@]2(OC(=O)C(Cl)Cl)C(=O)OCCl` [Compound D, Chloromethyl 17α-dichloroacetoxy-11β-hydroxyandrosta-1,4-dien-3-one-17β-carboxylate], in data set [1], the RBA came out at 684, the pIC50 is 7.92 and the “Relative binding affinity (RBA)” value was found to be 684. In data set [2] (3 Hours, 10 mM), the Vasoconstriction activity was found to be 4. The same molecule gave a Vasoconstriction activity in data set [2] (20 Hours, 10 mM) of 1. Moreover, in the data set “in vitro”, the fraction remaining at 2 h came out at 70% and the amount remaining at 2 h, 10 µM was determined as 70.6%.
For the molecule `COC(=O)[C@@]1(OC(=O)C(Cl)Cl)CC[C@H]2[C@@H]3CCC4=CC(=O)C=C[C@]4(C)[C@H]3[C@@H](O)C[C@@]21C` [Compound A, Methyl 17α-dichloroacetoxy-11β-hydroxyandrosta-1,4-dien-3-one-17β-carboxylate], in data set [1], the RBA came out at 165, the pIC50 is 7.31 and the “Relative binding affinity (RBA)” value is reported as 165. The molecule further displayed a Vasoconstriction activity in data set [2] (3 Hours, 10 mM) of 4. This molecule also showed a Vasoconstriction activity in data set [2] (20 Hours, 10 mM) of 2. In the data set “in vitro”, the amount remaining at 2 h was 75% and the fraction remaining at 2 h, 10 µM came to 75.1%.
Molecule `CCOC(=O)[C@@]1(OC(=O)C(Cl)Cl)[C@H](C)C[C@H]2[C@@H]3CCC4=CC(=O)C=C[C@]4(C)[C@@]3(F)[C@@H](O)C[C@@]21C` [J, ethyl 17α-dichloroacetoxy-9α-fluoro-11β-hydroxy-16α-methylandrosta-1,4-dien-3-one-17β-carboxylate] yielded an RBA in data set [1] of 687 ± 49. The Vasoconstriction activity in data set [2] (3 Hours, 0.01 mM) is 0; in data set [2] (3 Hours, 0.05 mM) it was 1; in data set [2] (3 Hours, 0.1 mM), 2; in data set [2] (3 Hours, 0.5 mM), 2; in data set [2] (3 Hours, 1 mM), 3; in data set [2] (3 Hours, 5 mM), 3. Further, the Vasoconstriction activity was determined as 4 in data set [2] (3 Hours, 10 mM); 0 in data set [2] (20 Hours, 0.01 mM); 0 in data set [2] (20 Hours, 0.05 mM); 0 in data set [2] (20 Hours, 0.1 mM); 1 in data set [2] (20 Hours, 0.5 mM); 1 in data set [2] (20 Hours, 1 mM). Besides, the Vasoconstriction activity was 1 in data set [2] (20 Hours, 5 mM); 2 in data set [2] (20 Hours, 10 mM); 1 in data set [2] (24 Hours, 1 hour re-occlusion at 20-21 hours, 0.01 mM); 1 in data set [2] (24 Hours, 1 hour re-occlusion at 20-21 hours, 0.05 mM); 2 in data set [2] (24 Hours, 1 hour re-occlusion at 20-21 hours, 0.1 mM); 2 in data set [2] (24 Hours, 1 hour re-occlusion at 20-21 hours, 0.5 mM). For the same molecule, in “in vitro”, the share remaining at 2 h is greater than 90%.
On to `CC(C)OC(=O)[C@@]1(OC(=O)C(Cl)Cl)CC[C@H]2[C@@H]3CCC4=CC(=O)C=C[C@]4(C)[C@H]3[C@@H](O)C[C@@]21C` [Compound C, Isopropyl 17α-dichloroacetoxy-11β-hydroxyandrosta-1,4-dien-3-one-17β-carboxylate], for which, in data set [1], the RBA stood at 117, the pIC50 was 7.16 and the “Relative binding affinity (RBA)” value is given as 117. In addition, the Vasoconstriction activity in data set [2] (3 Hours, 10 mM) is 4. In data set [2] (20 Hours, 10 mM), the Vasoconstriction activity is given as 1. In “in vitro”, this molecule came in with a share remaining at 2 h greater than 90% and a share remaining at 2 h, 10 µM of 100%.
